Data set [1] deals with human ovarian adenocarcinoma cellSK-OV-3. Briefly: In vitro anticancer activity test (MTT cell proliferation assay). The format is cell-based. The note with it: SK-OV-3. As to the method:
(§1) The anticancer activity of the compounds was tested using an in vitro cancer cell tests. The specific test method is as follows: • 1. Cell recovery and culture method: the cryovial was taken out from the liquid nitrogen container firstly, soaked directly in 37°C warm water, and shaked from time to time to let it thaw as soon as possible. Then, the cryovial was transferred to a clean bench, and the lid was open. […] Then, the supernatant was discarded, complete culture medium containing 10% fetal bovine serum was added to resuspend the cells, the cells was counted, the cell density was adjusted, and then inoculated into a culture bottle. The culture bottle was placed in a cell culture incubator at 5% CO2 and 37°C. The complete culture medium was replaced once the next day and the culture was continued. • 2. Cell passaging method: adherent cells in the logarithmic growth phase were placed in a clean bench, the original culture medium was discarded, and washed three times with 1×PBS. An appropriate amount of 0.25% trypsin digestion solution was added to moisten the cells, and then the trypsin solution was aspirated. […] When 90% of the cells become round, the cells were moved immediately to the clean bench and complete culture medium was added to terminate digestion. Then, the cells were dislodged by pipetting up and down with a rubber-tipped dropper to single cells. The cells were counted, and the cell density was adjusted. The cells were inoculated into a suitable culture bottle or dish, added enough complete culture medium, and placed in a cell culture incubator at 5% CO2 and 37°C for static culture. For suspension cells in the logarithmic phase, the original culture medium was directly centrifuged at 50g for 5 minutes, the supernatant was discarded, and the cells were washed once with PBS and centrifuged. After discarding the supernatant, the complete culture medium was added and the cells were dispersed using a rubber-tipped dropper. The cells are counted, and the cell density was adjusted. The cells were inoculated into appropriate culture bottles or culture dishes, and sufficient complete culture medium was added, and the cells were cultured in a cell culture incubator at 5% CO2 and 37°C. • 3.
A general note: Tetrazolium assays rely on reduction of a dye to a coloured formazan, in cell work by metabolically active cells.

Data set [2] concerns human breast ductal carcinoma cell T-47D. The description is as above. The class given is cell-based. The settings on record: T47D. How it is done:
as §1

The subject of data set [3] is Staphylococcus aureus ATCC43300. Kind of data set: Resistance test of bacteria against compounds (serial passage, 21 days). The class given is cell-based. The note with it: for MIC: Staphylococcus aureus, ATCC43300, 504 h, read-out: MIC at the end of the experiment. How it is done: This example provides a resistance test of bacteria against compounds, and the specific experimental method is as follows. • 1. […] It was ensured that among the 6 final concentrations of the drug diluted into the wells, some were higher than the original MIC of the bacteria and some were lower than the original MIC of the bacteria. • 2. Preparation of bacterial liquid: 10 mL of culture medium was taken and added to a sterilized plate using a pipette, then 100 µL of the above-mentioned passaged bacterial liquid was added, and mixed well for later use. • 3. The above-mentioned diluted bacterial liquid was taken and added to a 96-well plate using a pipette, 180 µL per well, 3 wells per group, 6 groups in total. 20 µL of drug solution was added to each well (note: it is necessary to replace the pipette tip each time the drug is added), so that the final drug concentrations were 2 µg/mL, 1 µg/mL, 0.8 µg/mL, 0.4 µg/mL, 0.2 µg/mL, 0.1 µg/mL, respectively. The well with 200 µL of diluted bacterial liquid was used as the positive control well, and the well with 200 µL of culture medium was used as the negative control well.
The test object was Staphylococcus aureus (S. aureus). The specific results are shown in FIG1.

In data set [4] the test system is human acute T-lymphoblastic leukemia cell Jurkat. Briefly: In vitro anticancer activity test (MTT cell proliferation assay). The class given is cell-based. As to the method: as §1
Data set [5] concerns methicillin-resistant Staphylococcus aureus. The class given is in vivo, Kunming mice. The settings on record: for reduction of necrosis area compared with the control group: 4 consecutive days, measured on 5th day. As to the method:
Kunming mice (20±2 g) were anesthetized with chloral hydrate and shaved, and then 50 µL of 4×10^7 CFU/mL of methicillin-resistant Staphylococcus aureus was subcutaneously injected. One day later, 100 µL of 0.02, 2 and 200 mg/kg of Example 29 were subcutaneously injected respectively, and 100 µL of normal saline was injected for the control group. The drug was administered for consecutive 4 days, and mice were euthanized on the 5th day, and the area of abscess was measured.

Molecules are shown by their SMILES. Values after ≈ are worked out from the molar mass of the structure shown. Like-named read-outs stand apart in the source and are kept apart here. Some results are limits rather than exact numbers.

From patent publication EP4644391A1, “NOVEL PHENYLQUINOLONE COMPOUND HAVING ANTIBACTERIAL AND ANTICANCER FUNCTIONS, AND PREPARATION THEREOF” (Alphamol Science Ltd (Shanghai), priority 2022, dated 2024) come the findings set out here.

As a reminder, the IC50 is the point on the concentration scale where inhibition reaches its midpoint. A lower IC50 goes with higher potency. For orientation: MIC means the least concentration at which growth counts as inhibited.

For the compound `CCN(CC)CCNC(=O)c1c(C)[nH]c(/C=C2\C(=O)Nc3ccc(F)cc32)c1C` [Sunitinib], the results for the IC50 in data set [1] and in data set [2] were 12.2 ± 5.8 µM and 6.4 ± 1.7 µM, respectively.

As for `O=C(O)c1cn(C2CC2)c2cc(N3CCNCC3)c(F)cc2c1=O` [Ciprofloxacin], in data set [3] (Staphylococcus aureus ATCC43300, serial passage), the “resistance of bacteria in the subsequent culture” value was “increased rapidly”. The minimum inhibitory concentration (MIC) in data set [3] came out at 128 µg/mL (≈ 386 µM). In data set [4], this compound gave an IC50 of over 100 µM.

Consider `O=C(O)c1cn(C2CC2)c2c(Cl)c(-c3ccc(S(=O)(=O)NCCCC(F)(F)F)nc3)c(F)cc2c1=O` [Example 29, 8-chloro-1-cyclopropyl-6-fluoro-4-oxo-7-(6-(N-(4,4,4-trifluorobutyl)sulfamoyl)pyridin-3-yl)-1,4-dihydroquinolin-3-carboxylic acid], for which, in data set [3] (Staphylococcus aureus ATCC43300, start of resistance test), the “initial MIC compared with ciprofloxacin and vancomycin” value was “superior”. Moreover, the MIC in data set [3] came out at 2 µg/mL (≈ 3.65 µM). The IC50 in data set [1], in data set [2] and in data set [4] was 1 to 10 µM throughout. Further, the “reduction of necrosis area compared with the control group” value in data set [5] (0.02 mg/kg subcutaneous) is listed as 78.09%; in data set [5] (2 mg/kg subcutaneous), 81.21%. For the same compound, in data set [5] (concentrations 4 µg/mL and 400 µg/mL (corresponding to 0.02 mg/kg, 200 mg/kg)), the antibacterial effect result was “good antibacterial effect”. In addition, the “observation at the subcutaneous administration site” value in data set [5] (mouse, in vivo, sc, 200 mg/kg) was “certain bleeding symptom in body surface appeared”.
